Source: PubChem BioAssay (NCI)
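Following 48 hours of exposure in 96-well plates, responses at five concentrations were used to interpolate endpoints linearly. TGI marks complete inhibition of growth.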

Assays:
Assay in all cases: NCI-60 cell line screen, 48 h
[1] = test system: KM12 colon
[2] = test system: HOP-92 NSCLC
[3] = test system: U251 CNS
[4] = test system: EKVX NSCLC
[5] = test system: SK-MEL-5 melanoma
[6] = test system: BT-549 breast
[7] = test system: MCF7 breast
[8] = test system: RPMI-8226 leukemia
[9] = test system: SNB-19 CNS
[10] = test system: OVCAR-4 ovarian
[11] = test system: A549 NSCLC
[12] = test system: SK-OV-3 ovarian

SMILES	TGI [1] [µM]	TGI [2] [µM]	TGI [3] [µM]	TGI [4] [µM]	TGI [5] [µM]	TGI [6] [µM]	TGI [7] [µM]	TGI [8] [µM]	TGI [9] [µM]	TGI [10] [µM]	TGI [11] [µM]	TGI [12] [µM]
O=C1C(Br)=C(c2ccccc2)O/C1=C/C(=O)c1ccc(Br)cc1	> 100	> 100	> 100	> 100	> 100	25.5	> 100	62.7	> 100	> 100		
O=CNNC(=O)Nc1cccc2ccccc12	> 100		> 100	> 100	> 100		> 100	> 100	> 100	> 100	> 100	> 100
OC1(c2ccc(-c3ccccc3)cc2)c2ccccc2C2=NCCN21 (centres undefined)	54.4	> 100	> 100		43.6	> 100		> 100	38.3	> 100	> 100	> 100
COC(CN(C(C)=O)C1CCC2(SCCS2)c2[nH]c3ccccc3c21)OC (centres undefined)	> 100	> 100	> 100	> 100	> 100	> 100	> 100	> 100	> 100	> 100	> 100	
O=c1cc(CO)oc2c3c(cc(O)c12)OCC(COC1OC(CO)C(O)C(O)C1O)=CC3 (centres undefined)	> 100	> 100	> 100	> 100	> 100			> 100	> 100	> 100	> 100	> 100
COc1ccc(C(=O)O[C@H]2[C@@H]3C=CO[C@@H](OC4OC(CO)C(O)C(O)C4O)[C@@H]3[C@@]3(CO)O[C@@H]23)cc1O (some centres undefined)	> 100	> 100	> 100	> 100	> 100			> 100	> 100	> 100	> 100	> 100
CO/N=C(/C)c1cccc(Nc2nc3ccccc3c3[nH]c4ccccc4c23)c1	14.2		30.9		18.2		19.9		26.7		24.7	40.3
O=C(/C=C/c1ccccc1)CSc1ncn[nH]1	> 100		> 100	> 100	> 100	> 100	> 100	> 100	> 100	> 100	> 100	> 100
O=C(NCCN1CCOCC1)c1cn2c(ccc3sc4ccccc4c(=O)c32)n1	> 100	> 100	21.6	> 100	60.6	> 100	> 100	41.2	> 100		> 100	
COc1ccc(-n2c(N)c(C#N)[nH]c2=O)cc1	> 10	> 10	> 10	> 10	> 10			> 10	> 10	> 10	> 10	> 10
COc1ccc(C(c2c(O)c3ccccc3n(-c3ccccc3)c2=O)c2c(O)c3ccccc3n(-c3ccccc3)c2=O)cc1	> 100	> 100	> 100	> 100	> 100			> 100	> 100	> 100	> 100	
COc1ccc(N=NC(C(=O)c2ccccc2)C(=O)c2ccccc2)cc1	> 100		> 100	71.1	34			53.7	80.3	> 100	75	96
CCOc1ccc2[nH]c3c(C)c4ccncc4c(C)c3c2c1	2.22	3.07	2.16	2.9	2.86				2.77	2.72	2.88	16.4
COC(=O)CCC1=C(CC(=O)OC)C(C)(OC)N=C1NC(=O)OCc1ccccc1 (centres undefined)	> 100		> 100	> 100	> 100	> 100	> 100	> 100	> 100	> 100	> 100	> 100
CC1(C)OC2[C@@H](CO[C@@]3([C@@H](O)CCO)OC(C)(C)O[C@@H]23)O1 (some centres undefined)	> 100	> 100	> 100	> 100	> 100	> 100	> 100	> 100	> 100	> 100		
COc1c(/C=C/C(C)(C)O)cc(C2CC(=O)c3c(O)cc(O)cc3O2)cc1CC=C(C)C (centres undefined)	20.7	17.8	14.4		15.6	15.8	15.3	28.4	18.6	24.6	19.8	17.6
CCCCCCCCCCCCCCCCNC(=O)C(=O)/C=C(\O)c1ccc(C)cc1	> 10		> 10	> 10	> 10		> 10	> 10		> 10		> 10
CN(C)c1ccc(C=NCC2CCCN3CCCCC23)cc1 (centres undefined)	> 100			> 100	> 100	> 100	> 100		> 100		> 100	> 100
NC1=C(NC(=O)Cc2ccccc2F)C(=O)c2ccccc2C1=O	> 100	98.1	> 100	> 100				> 100	> 100	> 100	> 100	
Cc1ccc2c(c1)C(=O)c1nc(C)ccc1C2=O	> 100		> 100	> 100	19.7	> 100	> 100	74.1	63.7	89	> 100	> 100
CCOC(=O)c1c(N=P(c2ccccc2)(c2ccccc2)c2ccccc2)nnc(-c2ccccc2)c1-c1ccccc1	> 100	> 100	> 100	> 100	> 100		> 100		> 100	> 100	> 100	> 100
CS(=O)(=O)OCCN(CCOS(C)(=O)=O)c1ccc(C=Nc2cccc(Cl)c2)cc1	> 100	> 92.7	20.7	46.6	22.6	53.3	> 100	32.6	> 46.2	> 63.6	29.2	
